What all share (type): biochemical
In one assay the target is T1, Tek (Homo sapiens, UniProt Q02763).
T1 construct: amino acids 773-1124 of the cytoplasmic kinase domain of human Tek, N-terminally fused to GST; made in house; host or cells: Sf9 insect cells (baculovirus)
Nature of the assay: Recombinant GST-Tek (Tie-2) tyrosine kinase assay (33P into poly(Glu,Tyr)). The note with it: Examples 1 to 169. An excerpt: (Tie-2/Tek): The baculovirus donor vector pFbacG01 was used to generate a recombinant baculovirus that expressed the amino acid region amino acids 773-1124 of the cytoplasmic kinase domain of human Tek, N-terminally fused to GST (Provided by Dr. Marmé, Institute of Molecular Medicine, Freiburg, Germany based on a Research Collaboration). Tek was recloned into the pFbacG01 transfer vector by EcoRI excision and ligation into EcoRI digested pFbacG01 (FBG-Tie2/Tek).
Production of virus: Transfer vectors containing the kinase domains were transfected into the DH10Bac cell line (GIBCO) and plated on selective agar plates. Colonies without insertion of the fusion sequence into the viral genome (carried by the bacteria) are blue. Single white colonies were picked and viral DNA (bacmid) isolated from the bacteria by standard plasmid purification procedures. Sf9 cells or Sf21 cells were then transfected in 25 cm^2 flasks with the viral DNA using Cellfectin reagent.
Determination of small scale protein expression in Sf9 cells: Virus containing media was collected from the transfected cell culture and used for infection to increase its titer. Virus containing media obtained after two rounds of infection was used for large-scale protein expression. For large-scale protein expression 100 cm^2 round tissue culture plates were seeded with 5×10^7 cells/plate and infected with 1 mL of virus-containing media (approx. 5 MOIs). After 3 days the cells were scraped off the plate and centrifuged at 500 rpm for 5 min. Cell pellets from 10-20, 100 cm^2 plates, were resuspended in 50 mL of ice-cold lysis buffer (25 mMTris-HCl, pH7.5, 2 mMEDTA, 1% NP-40, 1 mM DTT, 1 mMP MSF). The cells were stirred on ice for 15 min and then centrifuged at 5000 rpms for 20 min.
Purification of GST-tagged proteins: The centrifuged cell lysate was loaded onto a 2 mL glutathione-sepharose column and washed three times with 10 mL of 25 mM Tris-HCl, pH 7.5, 2 mM EDTA, 1 mM DTT, 200 mM NaCl. The GST-tagged proteins were then eluted by 10 applications (1 mL each) of 25 mM Tris-HCl, pH 7.5, 10 mM reduced-glutathione, 100 mM NaCl, 1 mM DTT, 10% Glycerol and stored at −70° C.
Measure of enzyme activity: Tyrosine protein kinase assays with either purified GST-Ret, GST-Tek or GST-FGFR-3-K650E were carried out in a final volume of 30 μL with final concentrations of the following components: Ret included 15 ng of GST-Ret, 20 mM Tris-HCl, pH 7.5, 1 mM MnCl2, 10 mM MgCl2, 1 mM DTT, 3 μg/mL poly(Glu,Tyr) 4:1, 1% DMSO and 2.0 μM ATP (γ-[^33P]-ATP 0.1 μCi). Tek included 150 ng of GST-Tek, 20 mM Tris-HCl, pH 7.5, 3 mM MnCl2, 3 mM MgCl2, 1 mM DTT, 0.01 mM Na3VO4, 250 μg/mL PEG 20'000, 10 μg/mL poly(Glu,Tyr) 4:1, 1% DMSO and 4.0 μM ATP (γ-[^33P]-ATP 0.1 μCi). FGFR-3-K650E included 10 ng of GST-FGFR-3-K650E, 20 mM Tris-HCl, pH 7.5, 3 mM MnCl2, 3 mM MgCl2, 1 mM DTT, […], 10 μg/mL poly(Glu,Tyr) 4:1, 1% DMSO and 4.0 μM ATP (γ-[^33P]-ATP 0.1 μCi).The activity was assayed in the presence or absence of inhibitors, by measuring the incorporation of ^33P from [γ^33P] ATP into poly(Glu,Tyr) 4:1. The assay was carried out in 96-well plates at ambient temperature for 30 min under conditions described below and terminated by the addition of 50 μL of 125 mM EDTA. Subsequently, 60 μL of the reaction mixture were transferred onto Immobilon-PVDF membrane (Millipore) previously soaked for 5 min with methanol, rinsed with water, then soaked for 5 min with 0.5% H3PO4 and mounted on vacuum manifold with disconnected vacuum source. After spotting all samples, vacuum was connected and each well rinsed with 200 μL 0.5% H3PO4. Membranes were removed and washed 4× on a shaker with 1.0% H3PO4, once with ethanol. Membranes were counted after drying at ambient temperature, mounting in Packard TopCount 96-well frame, and addition of 10 μL/well of Microscint™ (Packard). […]

The target in another assay is T2, FGFR3 (K650E) (Homo sapiens, UniProt P22607, K650E).
T2 construct: amino acids 411-806 of the cytoplasmic domain of human FGFR-3, N-terminally fused to GST; made in house; host or cells: Sf9 insect cells (baculovirus)
Nature of the assay: Recombinant GST-FGFR-3-K650E tyrosine kinase assay (33P into poly(Glu,Tyr)). The note with it: 10 μM; Examples 1 to 169; read-out: FGFR3 (K650E) inhibition at 10 μM.

A further assay has as its target T3, KDR (Homo sapiens, UniProt P35968).
T3 construct: expressed in transfected cells; host or cells: CHO cells
Nature of the assay: Inhibitory activity against KDR (VEGF-R2), in vitro data of Examples 170 and 207. The note with it: 10 μM; Examples 1 to 169; read-out: KDR inhibition at 10 μM. On the procedure:
(Controls comprise medium without test compounds). After two hours of incubation at 37° C., recombinant VEGF is added; the final VEGF concentration is 20 ng/ml. After a further five minutes incubation at 37° C., the cells are washed twice with ice-cold PBS (phosphate-buffered saline) and immediately lysed in 100 μl lysis buffer per well. The lysates are then centrifuged to remove the cell nuclei, and the protein concentrations of the supernatants are determined using a commercial protein assay (BIORAD). The lysates can then either be immediately used or, if necessary, stored at −20° C. […] The plates are then washed and the remaining free protein-binding sites are saturated with 3% TopBlock® (Juro, Cat. # TB232010) in phosphate buffered saline with Tween 20® (polyoxyethylen(20)sorbitane monolaurate, ICI/Uniquema) (PBST). The cell lysates (20 μg protein per well) are then incubated in these plates overnight at 4° C. together with an antiphosphotyrosine antibody coupled with alkaline phosphatase (PY20:AP from Zymed). […] The luminescence is measured in a Packard Top Count Microplate Scintillation Counter.

This passage reports inhibition results from patent US8552002B2 (Novartis AG, priority 2004, dated 2013).

One may read the inhibition as how much of the control response was suppressed.

T2 sequence (P22607 411-806 K650E): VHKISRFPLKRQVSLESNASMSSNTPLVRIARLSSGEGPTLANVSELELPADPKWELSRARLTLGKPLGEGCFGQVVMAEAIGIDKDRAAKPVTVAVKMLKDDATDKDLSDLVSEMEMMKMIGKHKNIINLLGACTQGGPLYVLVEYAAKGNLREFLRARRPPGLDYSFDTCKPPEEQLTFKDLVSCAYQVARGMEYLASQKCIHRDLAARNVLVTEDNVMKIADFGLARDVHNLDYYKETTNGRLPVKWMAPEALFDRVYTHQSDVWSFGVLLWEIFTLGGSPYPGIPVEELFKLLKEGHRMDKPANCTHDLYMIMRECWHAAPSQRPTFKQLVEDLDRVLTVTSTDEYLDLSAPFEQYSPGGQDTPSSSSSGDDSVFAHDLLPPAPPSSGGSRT
T1 sequence (Q02763 773-1124): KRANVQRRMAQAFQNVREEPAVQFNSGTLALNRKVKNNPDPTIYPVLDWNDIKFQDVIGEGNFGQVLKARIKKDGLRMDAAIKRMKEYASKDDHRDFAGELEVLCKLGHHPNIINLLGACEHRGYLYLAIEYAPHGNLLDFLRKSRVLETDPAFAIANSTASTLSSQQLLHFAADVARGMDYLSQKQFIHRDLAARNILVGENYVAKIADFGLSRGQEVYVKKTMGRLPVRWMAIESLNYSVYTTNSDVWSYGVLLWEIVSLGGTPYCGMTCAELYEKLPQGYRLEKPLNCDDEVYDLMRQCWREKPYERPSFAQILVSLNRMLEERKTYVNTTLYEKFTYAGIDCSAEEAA
T3 sequence (P35968 20-1356): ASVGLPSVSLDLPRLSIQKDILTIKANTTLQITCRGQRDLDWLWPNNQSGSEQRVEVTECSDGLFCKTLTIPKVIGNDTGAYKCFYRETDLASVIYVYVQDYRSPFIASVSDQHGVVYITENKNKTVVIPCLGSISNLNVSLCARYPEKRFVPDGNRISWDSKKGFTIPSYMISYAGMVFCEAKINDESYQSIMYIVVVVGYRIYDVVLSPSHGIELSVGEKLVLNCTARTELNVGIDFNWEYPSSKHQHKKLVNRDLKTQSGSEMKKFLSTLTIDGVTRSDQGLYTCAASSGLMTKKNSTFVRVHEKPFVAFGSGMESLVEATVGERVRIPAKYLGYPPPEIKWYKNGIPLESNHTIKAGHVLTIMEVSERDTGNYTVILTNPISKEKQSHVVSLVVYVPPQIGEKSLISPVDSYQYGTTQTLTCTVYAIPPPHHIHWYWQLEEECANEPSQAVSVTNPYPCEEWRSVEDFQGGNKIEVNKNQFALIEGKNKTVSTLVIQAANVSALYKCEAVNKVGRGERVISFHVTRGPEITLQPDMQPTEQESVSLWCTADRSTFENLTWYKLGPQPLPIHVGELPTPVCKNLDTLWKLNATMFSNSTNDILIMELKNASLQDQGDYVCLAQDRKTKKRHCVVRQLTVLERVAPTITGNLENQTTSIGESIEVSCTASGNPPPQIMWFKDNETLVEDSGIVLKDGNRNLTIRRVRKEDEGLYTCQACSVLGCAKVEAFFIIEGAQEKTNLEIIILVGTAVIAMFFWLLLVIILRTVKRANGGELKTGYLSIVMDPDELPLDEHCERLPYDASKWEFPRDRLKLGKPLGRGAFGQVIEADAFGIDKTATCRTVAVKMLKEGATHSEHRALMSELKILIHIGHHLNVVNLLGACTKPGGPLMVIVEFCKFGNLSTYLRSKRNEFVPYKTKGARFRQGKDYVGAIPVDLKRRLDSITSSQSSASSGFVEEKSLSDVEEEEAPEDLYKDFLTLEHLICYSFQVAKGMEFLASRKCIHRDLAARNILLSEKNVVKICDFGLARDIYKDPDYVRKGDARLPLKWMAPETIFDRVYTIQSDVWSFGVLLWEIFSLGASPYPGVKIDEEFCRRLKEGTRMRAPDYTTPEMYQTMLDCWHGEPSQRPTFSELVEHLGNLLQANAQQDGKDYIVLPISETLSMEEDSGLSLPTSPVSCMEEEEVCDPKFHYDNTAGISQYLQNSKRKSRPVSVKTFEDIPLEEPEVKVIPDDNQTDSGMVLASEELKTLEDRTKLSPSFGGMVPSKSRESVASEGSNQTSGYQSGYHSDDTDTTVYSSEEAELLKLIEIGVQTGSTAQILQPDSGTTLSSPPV

Take `COc1ccc(OC)c(NC(=O)Nc2cc(Nc3ccc(N4CCN(C)CC4)cc3)ncn2)c1` [Example 12, 1-(2,5-Dimethoxy-phenyl)-3-{6-[4-(4-methyl-piperazin-1-yl)-phenyl-amino]-pyrimidin-4-yl}-urea]: the inhibition at 10 µM at Tek lay in the range of 12 to 100%; on FGFR3 (K650E), 27 to 100%; at KDR, 67 to 100%.
Consider `COc1ccc(OC)c(NC(=O)Nc2cc(Nc3cccc(N4CCN(C)CC4)c3)ncn2)c1` [Example 13, 1-(2,5-Dimethoxy-phenyl)-3-{6-[3-(4-methyl-piperazin-1-yl)-phenyl-amino]-pyrimidin-4-yl}-urea], for which the inhibition at 10 µM on Tek was in the range of 12 to 100%; on FGFR3 (K650E), 27 to 100%; on KDR, 67 to 100%.
For `COc1cc(NC(=O)Nc2cc(Nc3ccc(N4CCN(C)CC4)cc3)ncn2)cc(OC)c1OC` [Example 14, 1-{6-[4-(4-Methyl-piperazin-1-yl)-phenylamino]-pyrimidin-4-yl}-3-(3,4,5-trimethoxy-phenyl)-urea], in that order: 12 to 100%, 27 to 100% and 67 to 100%.
Consider `COc1cc(NC(=O)Nc2cc(Nc3cccc(N4CCN(C)CC4)c3)ncn2)cc(OC)c1OC` [Example 15, 1-{6-[3-(4-Methyl-piperazin-1-yl)-phenylamino]-pyrimidin-4-yl}-3-(3,4,5-trimethoxy-phenyl)-urea], for which the inhibition at 10 µM at Tek was in the range of 12 to 100%; on FGFR3 (K650E), 27 to 100%; on KDR, 67 to 100%.
On to `COc1ccc(NC(=O)Nc2cc(Nc3ccc(N4CCN(C)CC4)cc3)ncn2)c(OC)c1` [Example 16, 1-(2,4-Dimethoxy-phenyl)-3-{6-[4-(4-methyl-piperazin-1-yl)-phenyl-amino]-pyrimidin-4-yl}-urea], for which the inhibition at 10 µM fell in the range of 12 to 100% on Tek, 27 to 100% on FGFR3 (K650E) and 67 to 100% on KDR.
In the same order, the values of `COc1ccc(NC(=O)Nc2cc(Nc3cccc(N4CCN(C)CC4)c3)ncn2)c(OC)c1` [Example 17, 1-(2,4-Dimethoxy-phenyl)-3-{6-[3-(4-methyl-piperazin-1-yl)-phenyl-amino]-pyrimidin-4-yl}-urea] are 12 to 100%, 27 to 100% and 67 to 100%.
Take `COc1cc(NC(=O)Nc2cc(Nc3ccc(N4CCN(C)CC4)cc3)ncn2)cc(OC)c1` [Example 18, 1-(3,5-Dimethoxy-phenyl)-3-{6-[4-(4-methyl-piperazin-1-yl)-phenyl-amino]-pyrimidin-4-yl}-urea]: the inhibition at 10 µM on Tek lay within 12 to 100%; at FGFR3 (K650E) it was 27 to 100%; on KDR it was 67 to 100%.
In the case of `COc1cc(NC(=O)Nc2cc(Nc3cccc(N4CCN(C)CC4)c3)ncn2)cc(OC)c1` [Example 19, 1-(3,5-Dimethoxy-phenyl)-3-{6-[3-(4-methyl-piperazin-1-yl)-phenyl-amino]-pyrimidin-4-yl}-urea], the inhibition at 10 µM at Tek was in the range of 12 to 100%; on FGFR3 (K650E), 27 to 100%; at KDR it was 67 to 100%.
For `CN1CCN(c2ccc(Nc3cc(NC(=O)Nc4cc(C(F)(F)F)cc(C(F)(F)F)c4)ncn3)cc2)CC1` [Example 20, 1-(3,5-Bis-trifluoromethyl-phenyl)-3-{6-[4-(4-methyl-piperazin-1-yl)-phenylamino]-pyrimidin-4-yl}-urea], the inhibition at 10 µM on Tek was in the range of 12 to 100%; at FGFR3 (K650E), 27 to 100%; at KDR it was 67 to 100%.
For `CN1CCN(c2cccc(Nc3cc(NC(=O)Nc4cc(C(F)(F)F)cc(C(F)(F)F)c4)ncn3)c2)CC1` [Example 21, 1-(3,5-Bis-trifluoromethyl-phenyl)-3-{6-[3-(4-methyl-piperazin-1-yl)-phenylamino]-pyrimidin-4-yl}-urea], in that order: 12 to 100%, 27 to 100% and 67 to 100%.
With `Cc1cc(C)cc(NC(=O)Nc2cc(Nc3ccc(N4CCN(C)CC4)cc3)ncn2)c1` [Example 22, 1-(3,5-Dimethyl-phenyl)-3-{6-[4-(4-methyl-piperazin-1-yl)-phenyl-amino]-pyrimidin-4-yl}-urea], the values for the inhibition at 10 µM at Tek, at FGFR3 (K650E) and at KDR were 12 to 100%, 27 to 100% and 67 to 100%, respectively.
Consider `Cc1cc(C)cc(NC(=O)Nc2cc(Nc3cccc(N4CCN(C)CC4)c3)ncn2)c1` [Example 23, 1-(3,5-Dimethyl-Phenyl)-3-{6-[3-(4-methyl-piperazin-1-yl)-phenyl-amino]-pyrimidin-4-yl}-urea], for which the values for the inhibition at 10 µM on Tek, on FGFR3 (K650E) and on KDR were 12 to 100%, 27 to 100% and 67 to 100%, respectively.
Take `COc1ccc(NC(=O)Nc2cc(Nc3ccc(N4CCN(C)CC4)cc3)ncn2)cc1Cl` [Example 24, 1-(3-Chloro-4-methoxy-phenyl)-3-{6-[4-(4-methyl-piperazin-1-yl)-phenyl-amino]-pyrimidin-4-yl}-urea]: the inhibition at 10 µM at Tek is 12 to 100%; at FGFR3 (K650E) it was 27 to 100%; on KDR it was 67 to 100%.
As to `COc1ccc(NC(=O)Nc2cc(Nc3cccc(N4CCN(C)CC4)c3)ncn2)cc1Cl` [Example 25, 1-(3-Chloro-4-methoxy-phenyl)-3-{6-[3-(4-methyl-piperazin-1-yl)-phenyl-amino]-pyrimidin-4-yl}-urea], the inhibition at 10 µM is 12 to 100% on Tek, 27 to 100% on FGFR3 (K650E) and 67 to 100% on KDR.
In the same order, the values of `COc1ccc(C)c(NC(=O)Nc2cc(Nc3ccc(N4CCN(C)CC4)cc3)ncn2)c1` [Example 26, 1-(5-Methoxy-2-methyl-phenyl)-3-{6-[4-(4-methyl-piperazin-1-yl)-phenyl-amino]-pyrimidin-4-yl}-urea] are 12 to 100%, 27 to 100% and 67 to 100%.
